Reference: PMC8848307 (Journal of medicinal chemistry, 2019)

Biological target: STAT3 protein (Homo sapiens, UniProt P40763)
Assay: Western blotting of STAT3 degradation in Molm-16 cells
Format: cell-based

Sequence of STAT3 protein (P40763 whole entry): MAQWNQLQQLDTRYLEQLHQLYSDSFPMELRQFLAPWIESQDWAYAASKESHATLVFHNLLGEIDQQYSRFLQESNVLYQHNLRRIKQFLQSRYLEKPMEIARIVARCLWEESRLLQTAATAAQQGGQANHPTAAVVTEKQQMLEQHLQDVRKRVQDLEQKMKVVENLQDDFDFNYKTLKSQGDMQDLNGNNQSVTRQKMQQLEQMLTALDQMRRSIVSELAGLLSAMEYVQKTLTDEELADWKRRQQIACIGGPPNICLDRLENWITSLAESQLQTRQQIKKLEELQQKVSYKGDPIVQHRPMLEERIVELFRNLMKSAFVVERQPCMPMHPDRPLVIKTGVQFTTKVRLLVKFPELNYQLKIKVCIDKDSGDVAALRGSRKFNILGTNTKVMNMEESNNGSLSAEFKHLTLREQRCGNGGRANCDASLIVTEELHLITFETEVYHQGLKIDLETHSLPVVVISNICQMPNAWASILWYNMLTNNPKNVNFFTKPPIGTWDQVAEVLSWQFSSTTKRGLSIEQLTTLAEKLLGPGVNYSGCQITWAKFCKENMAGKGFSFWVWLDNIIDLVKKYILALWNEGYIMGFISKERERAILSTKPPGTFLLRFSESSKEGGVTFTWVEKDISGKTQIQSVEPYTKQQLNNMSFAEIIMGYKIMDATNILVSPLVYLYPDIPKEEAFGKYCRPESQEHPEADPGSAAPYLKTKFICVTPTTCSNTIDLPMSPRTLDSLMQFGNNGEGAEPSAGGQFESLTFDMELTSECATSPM

Row | SMILES | times less potent than SD-36 in STAT3 degradation (Molm-16 cells, ratio of DC50) | other results
1 | NC(=O)CC[C@H](NC(=O)[C@@H]1CC[C@@H]2CCN(C(=O)CCCC#Cc3cccc4c3CN(C3CCC(=O)NC3=O)C4=O)C[C@H](NC(=O)c3cc4cc(C(F)(F)P(=O)(O)O)ccc4[nH]3)C(=O)N21)C(=O)NC(c1ccccc1)c1ccccc1 (stereo partly drawn) [Compound 12, ((2-(((5S,8S,10aR)-8-(((S)-5-Amino-1-(benzhydrylamino)-1,5-dioxopentan-2-yl)carbamoyl)-3-(6-(2-(2,6-dioxopiperidin-3-yl)-1-oxoisoindolin-4-yl)hex-5-ynoyl)-6-oxodecahydropyrrolo-[1,2-a][1,5]diazocin-5-yl)carbamoyl)-1H-indol-5-yl)-difluoromethyl)phosphonic Acid] |  | effect on the level of total STAT3 protein (Molm-16, 4 h, concentrations up to 1 μM): no effect; effect on the level of pSTAT3^Y705 protein (Molm-16, 4 h, up to / at 1 μM): only minimally
2 | NC(=O)CC[C@H](NC(=O)[C@@H]1CC[C@@H]2CCN(C(=O)CCCCC#Cc3cccc4c3CN(C3CCC(=O)NC3=O)C4=O)C[C@H](NC(=O)c3cc4cc(C(F)(F)P(=O)(O)O)ccc4[nH]3)C(=O)N21)C(=O)NC(c1ccccc1)c1ccccc1 (stereo partly drawn) [Compound 13, ((2-(((5S,8S,10aR)-8-(((S)-5-Amino-1-(benzhydrylamino)-1,5-dioxopentan-2-yl)carbamoyl)-3-(7-(2-(2,6-dioxopiperidin-3-yl)-1-oxoisoindolin-4-yl)hept-6-ynoyl)-6-oxodecahydropyrrolo[1,2-a][1,5]diazocin-5-yl)carbamoyl)-1H-indol-5-yl)difluoromethyl)phosphonic Acid] |  | times more potent than 12 in STAT3 degradation (Molm-16 cells, ratio of DC50): 10 times
3 | NC(=O)CC[C@H](NC(=O)[C@@H]1CC[C@@H]2CCN(C(=O)CCCCCCCCC#Cc3cccc4c3CN(C3CCC(=O)NC3=O)C4=O)C[C@H](NC(=O)c3cc4cc(C(F)(F)P(=O)(O)O)ccc4[nH]3)C(=O)N21)C(=O)NC(c1ccccc1)c1ccccc1 (stereo partly drawn) [Compound 16, ((2-(((5S,8S,10aR)-8-(((S)-5-Amino-1-(benzhydrylamino)-1,5-dioxopentan-2-yl)carbamoyl)-3-(11-(2-(2,6-dioxopiperidin-3-yl)-1-oxoisoindolin-4-yl)undec-10-ynoyl)-6-oxodecahydropyrrolo[1,2-a][1,5]diazocin-5-yl)carbamoyl)-1H-indol-5-yl)difluoromethyl)phosphonic Acid] | 2–3 times | 
4 | NC(=O)CC[C@H](NC(=O)[C@@H]1CC[C@@H]2CCN(C(=O)c3cnn(CCCC#Cc4cccc5c4CN(C4CCC(=O)NC4=O)C5=O)c3)C[C@H](NC(=O)c3cc4cc(C(F)(F)P(=O)(O)O)ccc4[nH]3)C(=O)N21)C(=O)NC(c1ccccc1)c1ccccc1 (stereo partly drawn) [Compound 20, ((2-(((5S,8S,10aR)-8-(((S)-5-Amino-1-(benzhydrylamino)-1,5-dioxopentan-2-yl)carbamoyl)-3-(1-(5-(2-(2,6-dioxopiperidin-3-yl)-1-oxoisoindolin-4-yl)pent-4-yn-1-yl)-1H-pyrazole-4-carbonyl)-6-oxodecahydropyrrolo[1,2-a][1,5]diazocin-5-yl)-carbamoyl)-1H-indol-5-yl)difluoromethyl)phosphonic Acid] | 3–4 times | 
5 | NC(=O)CC[C@H](NC(=O)[C@@H]1CC[C@@H]2CCN(C(=O)CCCn3cc(C#Cc4cccc5c4CN(C4CCC(=O)NC4=O)C5=O)cn3)C[C@H](NC(=O)c3cc4cc(C(F)(F)P(=O)(O)O)ccc4[nH]3)C(=O)N21)C(=O)NC(c1ccccc1)c1ccccc1 (stereo partly drawn) [Compound 21, ((2-(((5S,8S,10aR)-8-(((S)-5-Amino-1-(benzhydrylamino)-1,5-dioxopentan-2-yl)carbamoyl)-3-(4-(4-((2-(2,6-dioxopiperidin-3-yl)-1-oxoisoindolin-4-yl)ethynyl)-1H-pyrazol-1-yl)butanoyl)-6-oxodecahydropyrrolo[1,2-a][1,5]diazocin-5-yl)carbamoyl)-1H-indol-5-yl)difluoromethyl)phosphonic Acid] | 3–4 times | 
6 | NC(=O)CC[C@H](NC(=O)[C@@H]1CC[C@@H]2CCN(C(=O)N3CCC(CCC#Cc4cccc5c4CN(C4CCC(=O)NC4=O)C5=O)CC3)C[C@H](NC(=O)c3cc4cc(C(F)(F)P(=O)(O)O)ccc4[nH]3)C(=O)N21)C(=O)NC(c1ccccc1)c1ccccc1 (stereo partly drawn) [Compound 22, ((2-(((5S,8S,10aR)-8-(((S)-5-Amino-1-(benzhydrylamino)-1,5-dioxopentan-2-yl)carbamoyl)-3-(4-(4-(2-(2,6-dioxopiperidin-3-yl)-1-oxoisoindolin-4-yl)but-3-yn-1-yl)piperidine-1-carbon-yl)-6-oxodecahydropyrrolo[1,2-a][1,5]diazocin-5-yl)-carbamoyl)-1H-indol-5-yl)difluoromethyl)phosphonic Acid] | 3 times | 
7 | NC(=O)CC[C@H](NC(=O)[C@@H]1CC[C@@H]2CCN(C(=O)CCN3CCC(C#Cc4cccc5c4CN(C4CCC(=O)NC4=O)C5=O)CC3)C[C@H](NC(=O)c3cc4cc(C(F)(F)P(=O)(O)O)ccc4[nH]3)C(=O)N21)C(=O)NC(c1ccccc1)c1ccccc1 (stereo partly drawn) [Compound 23, ((2-(((5S,8S,10aR)-8-(((S)-5-Amino-1-(benzhydrylamino)-1,5-dioxopentan-2-yl)carbamoyl)-3-(3-(4-((2-(2,6-dioxopiperidin-3-yl)-1-oxoisoindolin-4-yl)ethynyl)piperidin-1-yl)propanoyl)-6-oxodecahydropyrrolo[1,2-a][1,5]diazocin-5-yl)carbamoyl)-1H-indol-5-yl)difluoromethyl)phosphonic Acid] | 40 times | 
8 | NC(=O)CC[C@H](NC(=O)[C@@H]1CC[C@@H]2CCN(C(=O)CC(=O)N3CCC(C#Cc4cccc5c4CN(C4CCC(=O)NC4=O)C5=O)CC3)C[C@H](NC(=O)c3cc4cc(C(F)(F)P(=O)(O)O)ccc4[nH]3)C(=O)N21)C(=O)NC(c1ccccc1)c1ccccc1 (stereo partly drawn) [Compound 24, ((2-(((5S,8S,10aR)-8-(((S)-5-Amino-1-(benzhydrylamino)-1,5-dioxopentan-2-yl)carbamoyl)-3-(3-(4-((2-(2,6-dioxopiperidin-3-yl)-1-oxoisoindolin-4-yl)ethynyl)piperidin-1-yl)-3-oxopropanoyl)-6-oxodecahydropyrrolo[1,2-a][1,5]diazocin-5-yl)-carbamoyl)-1H-indol-5-yl)difluoromethyl)phosphonic Acid] | 6 times | 
9 | NC(=O)CC[C@H](NC(=O)[C@@H]1CC[C@@H]2CCN(C(=O)CCCCCCCc3cccc4c3CN(C3CCC(=O)NC3=O)C4=O)C[C@H](NC(=O)c3cc4cc(C(F)(F)P(=O)(O)O)ccc4[nH]3)C(=O)N21)C(=O)NC(c1ccccc1)c1ccccc1 (stereo partly drawn) [Compound 25, ((2-(((5S,8S,10aR)-8-(((S)-5-Amino-1-(benzhydrylamino)-1,5-dioxopentan-2-yl)carbamoyl)-3-(8-(2-(2,6-dioxopiperidin-3-yl)-1-oxoisoindolin-4-yl)octanoyl)-6-oxodecahydropyrrolo-[1,2-a][1,5]diazocin-5-yl)-carbamoyl)-1H-indol-5-yl)-difluoromethyl)phosphonic Acid] | 2–3 times | 
